# Experimental data: patent US20260284055A1, “FGFR4 INHIBITOR COMPOSITION, PREPARATION METHOD THEREFOR AND PHARMACEUTICAL USE THEREOF” (Abbisko Therapeutics Co., Ltd., priority 2023, published 2026)
# Assays:
# Type in all cases: physicochemical
# [1] = Particle size distribution of active pharmaceutical ingredient (Malvern Mastersizer 2000)
# Protocol: The active pharmaceutical ingredient was mechanically milled, and samples were taken at different milling time points. The particle size distribution was determined using a Malvern Mastersizer 2000 laser particle size analyzer, and the particle morphology was observed using a polarizing microscope. [table]
# [2] = Content determination of active pharmaceutical ingredient (HPLC)
# Protocol: Chromatographic conditions: Octadecylsilane-bonded silica gel was used as the filler (Waters XBridge® C18, 4.6×150 mm, […] chromatographic column or chromatographic column with equivalent performance); a 0.1 vol % trifluoroacetic acid solution was used as mobile phase A, and a solution of 0.1 vol % trifluoroacetic acid in acetonitrile was used as mobile phase B; isocratic elution was performed with mobile phase A-mobile phase B (70:30); the detection wavelength was 232 nm, the flow rate was 1.0 mL/min, the column temperature was 40° C., the sample injection volume was 10 μL, and the run time was 10 min.
# (§1) The inventors first conducted a study on the physicochemical properties of the active pharmaceutical ingredient. The specific procedures were as follows: The active pharmaceutical ingredient and different auxiliary materials were mixed at different ratios and then placed under different conditions; the samples were taken out at different time points and then observed for appearance, hygroscopic weight gain, active pharmaceutical ingredient content, related substance content, etc.
# [3] = Micromeritic properties of powders (angle of repose, bulk density, tap density, Carr index, flowability)
# [4] = Hygroscopic weight gain (gravimetric method)
# Protocol: Gravimetric method: The initial weight of a sample was measured, recorded as W1, and then the weight of the sample after being placed under high-humidity conditions for a certain period of time was measured, recorded as W2; the percentage of hygroscopic weight gain was calculated based on the weight difference, using the following calculation formula: (W2−W1)/W1*100%.
# as §1
# [5] = Related substances (HPLC), compatibility and stability
# Protocol: Gradient elution was performed according to the table below, with a run time of 50.0 min and a post-run time of 5 min.
# as §1
# [6] = API of the capsule batch of the same table line
smiles,measurement,setting,value
C=CC(=O)N[C@H]1CCOC[C@H]1Nc1ncc2cc(-c3c(F)c(OC)cc(OC)c3F)nc(N3CC(C)(OC)C3)c2n1 [Test 1],Particle size distribution D10,[1],2.168 μm
same,Particle size distribution D50,[1],14.763 μm
same,Particle size distribution D90,[1],D90 = 125.775 μm
C=CC(=O)N[C@H]1CCOC[C@H]1Nc1ncc2cc(-c3c(F)c(OC)cc(OC)c3F)nc(N3CC(C)(OC)C3)c2n1 [Test 2],Particle size distribution D10,[1],1.509 μm
same,Particle size distribution D50,[1],9.682 μm
same,Particle size distribution D90,[1],D90 = 63.594 μm
C=CC(=O)N[C@H]1CCOC[C@H]1Nc1ncc2cc(-c3c(F)c(OC)cc(OC)c3F)nc(N3CC(C)(OC)C3)c2n1 [Test 3],Particle size distribution D10,[1],1.298 μm
same,Particle size distribution D50,[1],8.279 μm
same,Particle size distribution D90,[1],D90 = 43.137 μm
C=CC(=O)N[C@H]1CCOC[C@H]1Nc1ncc2cc(-c3c(F)c(OC)cc(OC)c3F)nc(N3CC(C)(OC)C3)c2n1 [Test 0],Particle size distribution D50,[1],155.607 μm
same,Particle size distribution D90,[1],333.563 μm
"C=CC(=O)N[C@H]1CCOC[C@H]1Nc1ncc2cc(-c3c(F)c(OC)cc(OC)c3F)nc(N3CC(C)(OC)C3)c2n1.Cc1ccc(S(=O)(=O)O)cc1.O [Active pharmaceutical ingredient, p-toluenesulfonate monohydrate of the compound of formula (I)]",Content,[2]; 0 d,100.5%
same,Content,"[2]; 25° C./92.5% RH, 30 d",99.5%
same,Content,"[2]; 40° C./75% RH, 30 d",98.6%
same,Content,"[2]; 60° C., 30 d",102.5%
same,Content,"[2]; Light exposure, 10 d",96.5%
same,Angle of repose,[3],44.66 °
same,Bulk density,[3],0.447 g/mL
same,Carr index,[3],40%
same,Tap density,[3],0.740 g/mL
same,Percentage change in hygroscopic weight gain,"[4]; 25° C./92.5% RH, 10 d",0.6%
same,Percentage change in hygroscopic weight gain,"[4]; 25° C./92.5% RH, 30 d",0.3%
same,Percentage change in hygroscopic weight gain,"[4]; 40° C./75% RH, 10 d",0.2%
same,Percentage change in hygroscopic weight gain,"[4]; 40° C./75% RH, 30 d",−0.3%
same,Hygroscopicity,[4]; API alone,not highly hygroscopic
same,Related substance (%),[5]; 0 d,0.66%
same,Related substance (%),"[5]; 25° C./92.5% RH (open), 30 d",0.98%
same,Related substance (%),"[5]; 25° C./92.5% RH (open), 30 d, listed as active pharmaceutical ingredient",slight increase in impurities
same,Related substance (%),"[5]; 40° C./75% RH (open), 30 d",0.58%
same,Related substance (%),"[5]; 40° C./75% RH (open), 30 d, listed as active pharmaceutical ingredient",remained stable
same,Related substance (%),"[5]; 60° C. (open), 30 d",0.66%
same,Related substance (%),"[5]; 60° C. (open), 30 d, listed as active pharmaceutical ingredient",remained stable
same,RRT = 0.27 related substance content,[5]; API,<0.05%
same,RRT = 0.44 related substance content,[5]; API,0.09%
same,RRT = 0.56 related substance content,[5]; API,<0.05%
same,RRT = 0.71 related substance content,[5]; API,0.05%
same,RRT = 0.74 related substance content,[5]; API,0.06%
same,RRT = 0.88 related substance content,[5]; API,0.06%
same,RRT = 0.97 related substance content,[5]; API,<0.05%
same,RRT = 1.05 related substance content,[5]; API,<0.05%
same,RRT = 1.09 related substance content,[5]; API,<0.05%
same,RRT = 1.27 related substance content,[5]; API,0.20%
same,RRT = 2.00 related substance content,[5]; API,0.14%
same,Related substance,[5]; API,0.60%
same,API impurities: Single impurity,[5]; [6],Single impurity < 0.05%
same,API impurities: Total impurities,[5]; [6],Total impurities < 0.05%
same,Related substance (%),"[5]; Light exposure (open), 10 d",0.64%
same,Related substance (%),"[5]; Light exposure (open), 10 d, listed as active pharmaceutical ingredient",remained stable
same,single impurity (RRT=0.44),[5]; after 10 days of exposure to light,0.07%
same,single impurity (RRT=0.44),[5]; before exposure to light,< 0.05%
